{"source": "patent US8193315B2", "about": "(Sanford-Burnham Medical Research Institute, priority 2001, dated 2012)", "type_in_all_cases": "cell-based", "key": {"NR1/NR3B receptors": {"target": "T1, NR1/NR3B receptors (Rattus norvegicus, UniProt P35439+Q8VHN2)", "T1 construct": "Full-length cDNAs encoding NMDA receptor subunits were linearized and used as templates for synthesis of cRNA; expressed in transfected cells; host or cells: Xenopus laevis oocytes injected with cRNA", "T1 sequence (Q8VHN2 25-1002, other chains not shown)": "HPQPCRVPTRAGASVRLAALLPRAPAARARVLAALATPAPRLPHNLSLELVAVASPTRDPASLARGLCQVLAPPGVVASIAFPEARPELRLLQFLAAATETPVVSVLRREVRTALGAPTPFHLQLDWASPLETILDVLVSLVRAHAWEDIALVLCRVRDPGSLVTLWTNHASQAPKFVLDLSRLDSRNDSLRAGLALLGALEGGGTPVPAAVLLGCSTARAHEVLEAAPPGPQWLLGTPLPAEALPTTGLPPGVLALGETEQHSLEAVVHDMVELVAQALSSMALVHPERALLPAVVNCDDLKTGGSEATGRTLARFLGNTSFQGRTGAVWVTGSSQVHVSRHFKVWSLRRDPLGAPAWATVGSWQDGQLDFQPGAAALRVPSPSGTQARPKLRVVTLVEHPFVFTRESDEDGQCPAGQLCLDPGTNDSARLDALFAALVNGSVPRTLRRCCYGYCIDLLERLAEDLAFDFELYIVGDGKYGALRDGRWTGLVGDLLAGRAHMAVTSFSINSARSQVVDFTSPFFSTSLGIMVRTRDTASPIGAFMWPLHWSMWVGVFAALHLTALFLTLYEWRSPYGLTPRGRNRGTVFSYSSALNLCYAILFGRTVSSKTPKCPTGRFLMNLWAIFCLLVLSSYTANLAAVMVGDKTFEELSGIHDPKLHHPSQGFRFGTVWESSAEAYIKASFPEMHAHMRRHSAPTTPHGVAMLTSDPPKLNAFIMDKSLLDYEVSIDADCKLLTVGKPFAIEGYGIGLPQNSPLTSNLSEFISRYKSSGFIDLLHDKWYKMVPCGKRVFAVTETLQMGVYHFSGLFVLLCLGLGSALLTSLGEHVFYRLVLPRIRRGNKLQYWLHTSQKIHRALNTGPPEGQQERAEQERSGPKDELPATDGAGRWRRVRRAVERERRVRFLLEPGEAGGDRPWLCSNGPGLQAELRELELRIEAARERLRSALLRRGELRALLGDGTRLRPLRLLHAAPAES", "assay": "Glycine-evoked whole-oocyte currents of NR1/NR3B receptors, dual-electrode voltage clamp in Xenopus oocytes", "excerpt": "NR3B cRNA for oocyte expression was produced as follows. The full-length NR3B cDNA was constructed in the pCMV6-XL4 vector (OriGene Technologies, Inc., Rockville, Md.), which contains a T7 promoter upstream of the cDNA insert. […] The truncated cRNA could potentially encode a dominant negative form of NR3B. Therefore, a new vector was constructed to facilitate production of exclusively full-length NR3B cRNA. Construction of this vector proceeded as follows. NR1 cDNA was excised from the pGEM-HE/NR1 vector (a gift from S. F. Heinemann) by digestion with EcoRI and the two ends of the truncated pGEM-HE vector were re-ligated. The truncated pGEM-HE vector retained the 5′ and 3′ UTRs of the X. laevis β-globin gene for high level protein expression in frog oocytes. The SfoI-KpnI fragment of truncated pGEM-HE, which contains the T7 promoter, was replaced with the PvuII-KpnI fragment of pBluescript II KS, which contains the T3 promoter, to generate pJC32. The abbreviated multiple cloning site of pJC32 was then replaced with the multiple cloning site from pcDNA3.1(+) (Invitrogen, Carlsbad, Calif.) by ligating the 102 bp PmeI fragment of pcDNA3.1(+) into the 3 kb SmaI-EcoRV fragment of pJC32 to generate pJC34. […] The resulting vector, pJC39, contains three rare restriction sites downstream of the multiple cloning site to facilitate linearization prior to in vitro transcription using T3 RNA polymerase.\nThe full-length NR3B (B4 form) cDNA was then excised from pCMV6-XL4 by digestion with EcoRI and XbaI, and the 3.2 kb fragment was ligated into EcoRI/XbaI-digested pJC39. The resulting vector, pJC42, was linearized with PmeI, and in vitro transcription was performed using the mMessage mMachine T3 kit (Ambion, Inc., Austin, Tex.) according to the manufacturer's instructions.\nMicropipettes were filled with 3 M KCl."}, "NR1/NR3A receptors": {"target": "T2, NR1/NR3A receptors (Rattus norvegicus, UniProt P35439+Q9R1M7)", "T2 construct": "Full-length cDNAs encoding NMDA receptor subunits were linearized and used as templates for synthesis of cRNA; expressed in transfected cells; host or cells: Xenopus laevis oocytes injected with cRNA", "T2 sequence (Q9R1M7 24-1115 isoform Q9R1M7-2 limits assumed, other chains not shown)": "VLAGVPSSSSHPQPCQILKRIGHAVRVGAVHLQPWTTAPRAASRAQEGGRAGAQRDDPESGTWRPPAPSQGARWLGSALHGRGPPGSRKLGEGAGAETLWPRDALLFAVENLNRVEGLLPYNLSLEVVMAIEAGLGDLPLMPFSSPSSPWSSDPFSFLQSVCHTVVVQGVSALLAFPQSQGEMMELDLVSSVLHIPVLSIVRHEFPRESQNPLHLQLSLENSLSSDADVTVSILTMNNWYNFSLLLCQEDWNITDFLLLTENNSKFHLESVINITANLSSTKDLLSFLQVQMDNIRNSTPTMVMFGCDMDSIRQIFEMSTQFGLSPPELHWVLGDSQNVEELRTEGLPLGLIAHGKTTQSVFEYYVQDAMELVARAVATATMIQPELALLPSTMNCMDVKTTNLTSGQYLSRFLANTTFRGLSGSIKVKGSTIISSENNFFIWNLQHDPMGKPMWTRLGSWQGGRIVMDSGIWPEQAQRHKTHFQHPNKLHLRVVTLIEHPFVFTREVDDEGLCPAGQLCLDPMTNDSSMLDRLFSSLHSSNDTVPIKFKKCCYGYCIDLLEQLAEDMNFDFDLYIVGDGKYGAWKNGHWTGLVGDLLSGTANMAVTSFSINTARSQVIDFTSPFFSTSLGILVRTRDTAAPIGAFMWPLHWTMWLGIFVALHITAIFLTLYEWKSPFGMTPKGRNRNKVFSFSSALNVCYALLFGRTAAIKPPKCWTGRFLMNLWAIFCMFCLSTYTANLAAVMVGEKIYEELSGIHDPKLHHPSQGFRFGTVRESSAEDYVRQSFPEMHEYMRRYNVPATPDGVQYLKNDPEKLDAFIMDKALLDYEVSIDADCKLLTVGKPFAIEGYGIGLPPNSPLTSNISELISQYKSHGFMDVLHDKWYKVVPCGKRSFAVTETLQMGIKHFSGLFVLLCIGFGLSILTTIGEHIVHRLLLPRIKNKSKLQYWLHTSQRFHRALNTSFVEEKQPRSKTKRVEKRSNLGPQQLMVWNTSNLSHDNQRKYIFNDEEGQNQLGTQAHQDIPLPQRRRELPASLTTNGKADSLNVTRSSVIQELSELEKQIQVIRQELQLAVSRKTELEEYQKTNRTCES", "assay": "Glycine-evoked whole-oocyte currents of NR1/NR3A receptors, two-electrode voltage recordings in Xenopus oocytes"}, "cerebrocortical neurons": {"system": "cerebrocortical neurons", "assay": "Single-channel recording from outside-out patches of cerebrocortical neurons"}, "[1]": {"system": "cultured cerebrocortical neurons"}}, "note": "“Also recorded” adds a separate entry of the source. Where two headings read alike, the source gives them in different places.", "data": [{"compound": "O=C(O)c1cc(=O)c2c(Cl)cc(Cl)cc2[nH]1", "note": "[5,7-DCKA, 5,7-dichlorokynurenate]", "values": [{"measurement": "effect on glycine-evoked currents of NR1/NR3B receptors", "setting": "NR1/NR3B receptors", "value": "blocks glycine activated currents; also recorded: virtually abolished"}]}, {"compound": "[Mg+2]", "note": "[Mg^2+]", "values": [{"measurement": "sensitivity of NR1/NR3B receptors to open-channel blocker compared to NR1/NR2A receptors", "setting": "NR1/NR3B receptors", "value": "drastically less sensitive"}, {"measurement": "sensitivity of NR1/NR3A receptors to open-channel blocker compared to NR1/NR2A receptors", "setting": "NR1/NR3A receptors", "value": "drastically less sensitive"}, {"measurement": "effect on channel activity (NPo) evoked by 2.5 μM glycine", "setting": "cerebrocortical neurons", "value": "little effect"}, {"measurement": "effect on glycine-activated single channels of cerebrocortical neurons", "setting": "cerebrocortical neurons", "value": "little effect"}]}, {"compound": "NC1(C(=O)O)CC1", "note": "[ACPC, 1-aminocyclopropanecarboxylic acid]", "values": [{"measurement": "effect on glycine-evoked currents of NR1/NR3B receptors", "setting": "NR1/NR3B receptors", "value": "inhibited"}]}, {"compound": "N[C@@H](CCC(=O)O)C(=O)O", "note": "[L-glutamate]", "values": [{"measurement": "activation of NR1/NR3B receptors by the substance alone (without co-agonist)", "setting": "NR1/NR3B receptors", "value": "did not evoke glycine-independent responses; also recorded: did not evoke a glycine-independent response"}, {"measurement": "effect on glycine-evoked currents of NR1/NR3B receptors", "setting": "NR1/NR3B receptors", "value": "little or no effect; also recorded: did not potentiate glycine-evoked currents"}, {"measurement": "effect on glycine-evoked currents of NR1/NR3A receptors", "setting": "NR1/NR3A receptors", "value": "did not potentiate glycine-evoked currents"}]}, {"compound": "CN[C@H](CC(=O)O)C(=O)O", "note": "[NMDA, N-methyl-D-aspartate]", "values": [{"measurement": "activation of NR1/NR3B receptors by the substance alone (without co-agonist)", "setting": "NR1/NR3B receptors", "value": "did not evoke glycine-independent responses; also recorded: did not evoke a glycine-independent response"}, {"measurement": "effect on glycine-evoked currents of NR1/NR3B receptors", "setting": "NR1/NR3B receptors", "value": "little or no effect; also recorded: did not potentiate glycine-evoked currents"}, {"measurement": "effect on glycine-evoked currents of NR1/NR3A receptors", "setting": "NR1/NR3A receptors", "value": "did not potentiate glycine-evoked currents"}]}, {"compound": "NC1=N[C@H](O)[C@H]2[C@H]3O[C@]4(O)O[C@@H]([C@@H](O)[C@@]2(N1)[C@@H]4O)[C@]3(O)CO", "note": "[tetrodotoxin]", "values": [{"measurement": "effect on glycine-evoked bursting response of cultured neurons", "setting": "[1]", "value": "inhibited"}]}, {"compound": "N[C@H](CCCP(=O)(O)O)C(=O)O", "note": "[AP5, D-(−)-2-amino-5-phosphonopentanoate]", "values": [{"measurement": "effect on glycine-evoked currents of NR1/NR3B receptors at 10 μM", "setting": "NR1/NR3B receptors", "value": "little or no effect"}, {"measurement": "effect on glycine-evoked currents of NR1/NR3A receptors at 10 μM", "setting": "NR1/NR3A receptors", "value": "little or no effect"}]}, {"compound": "C[C@]12N[C@H](Cc3ccccc31)c1ccccc12", "note": "[MK-801]", "values": [{"measurement": "sensitivity of NR1/NR3B receptors to open-channel blocker compared to NR1/NR2A receptors", "setting": "NR1/NR3B receptors", "value": "drastically less sensitive"}, {"measurement": "sensitivity of NR1/NR3A receptors to open-channel blocker compared to NR1/NR2A receptors", "setting": "NR1/NR3A receptors", "value": "drastically less sensitive"}]}, {"compound": "NCC(=O)O", "note": "[glycine]", "values": [{"measurement": "recordings in which glycine triggered neuronal bursting", "setting": "[1]", "value": "22 of 26"}]}, {"compound": "N[C@H](CO)C(=O)O", "note": "[D-serine]", "values": [{"measurement": "activation of NR1/NR3B receptors by the substance alone (without co-agonist)", "setting": "NR1/NR3B receptors; Xenopus oocytes", "value": "evokes small NR1/NR3B currents alone; also recorded: activated NR1/NR3B receptors in the absence of glycine; also recorded: evoked small currents alone"}, {"measurement": "effect on glycine-evoked currents of NR1/NR3B receptors", "setting": "NR1/NR3B receptors; Xenopus oocytes, glycine 10 μM, NMDA or L-glutamate 100 μM unless otherwise indicated", "value": "dose-dependently inhibits currents in the presence of glycine; also recorded: inhibited the glycine response"}, {"measurement": "activation of NR1/NR3A receptors by the substance alone", "setting": "NR1/NR3A receptors; Xenopus oocytes", "value": "did not independently manifest any agonist activity"}, {"measurement": "effect on glycine-evoked currents of NR1/NR3A receptors", "setting": "NR1/NR3A receptors; Xenopus oocytes", "value": "even more potent antagonist"}, {"measurement": "effect on glycine-evoked bursting response of cultured neurons", "setting": "[1]", "value": "inhibited"}, {"measurement": "glycine-responsive cells in which glycine-triggered bursting was inhibited", "setting": "[1]", "value": "5 of 22"}, {"measurement": "effect on channel activity (NPo) evoked by 2.5 μM glycine", "setting": "cerebrocortical neurons", "value": "decreased"}, {"measurement": "effect on glycine-activated single channels of cerebrocortical neurons", "setting": "cerebrocortical neurons", "value": "inhibited"}]}]}
